These are literature values, as cited in patent publication US20230405068A1, “RADIATION-INDUCED FIBROSIS TREATMENT” (Handelsselskabet af 20.10.2020 ApS, priority 2020, published 2023).

Data set [1] relates to radiation-induced dermatitis. The settings on record: rats.
Data set [2] deals with radiation-induced dermatitis. The settings on record: mice; applied topically.
The test system of data set [3] is radiation-induced skin fibrosis. The settings on record: intramuscular injection; pigs.
For data set [4] the test system is unchanged. The settings on record: intramuscular injection; humans.

Where two headings read alike, the source gives them in different places.

On to `CC(=O)N[C@@H](CS)C(=O)O` [N-acetylcysteine], for which the “protection from radiation-induced dermatitis” value in data set [1] is “significantly protects”.

On to `CC1(C)CC[C@]2(NC(=O)C(C)(F)F)CC[C@]3(C)[C@H](C(=O)C=C4[C@@]5(C)C=C(C#N)C(=O)C(C)(C)[C@@H]5CC[C@]43C)[C@@H]2C1` [RTA 408, omaveloxolone], for which the “protection from radiation-induced dermatitis” value in data set [2] is given as “allegedly protecting”.

For `NCCCNCCSP(=O)(O)O` [amifostine], in the data set on radiation-induced injury, the mitochondrial lipid peroxidation entry is listed as “limit mitochondrial lipid peroxidation” and the “protection from radiation-induced injury” value is listed as “protect from radiation-induced injury”.

Consider `N[C@@H](CCC(=O)N[C@@H](CS)C(=O)NCC(=O)O)C(=O)O` [glutathione], for which, in the data set on radiation-induced injury, the mitochondrial lipid peroxidation entry is reported as “limit mitochondrial lipid peroxidation” and the “protection from radiation-induced injury” value is given as “protect from radiation-induced injury”.

Consider “Sod1 (Cu—Zn) protein: Sod1 (Cu—Zn) protein given by intramuscular injection”, for which the “protection from radiation-induced skin fibrosis” value in data set [3] and in data set [4] was “protected” throughout.
